Test system: HeLa cells
Assay: Fluorescence assay of HeLa cells incubated with lipid conjugates (microtiter plate reader)
Type: cell-based
Details: preformed complexes, washed with PBS
Description: General Procedure for Incubation of Cells with Compounds: Cells were cultured in DMEM/RPMI medium supplemented with 10% fetal bovine serum and 1% penicillin/streptomycin. Cells were suspended in phosphate buffered saline (PBS), incubated with an ethanolic solution of lipid conjugates for 1-2 h at 4 or 37° C. to give a final concentration in each well of 0.01-100 μM in a total volume of 100 μL (10% EtOH). After the incubation period, cells were pelleted by centrifugation and washed (2×) and resuspended in 100 μL PBS and analyzed.
ATP Depletion: Cells were pretreated with 4 mM NaN3/0.8 mM NaF in 100 μL PBS for 30 m at 37° C. The cells were then washed with PBS (2×100 μL) and incubated with 100 μM ethanolic solutions of lipids for 2 h (total volume 100 μL, 10% EtOH). Analysis was carried out as described previously.
Incubation under Hypertonic Conditions: Cells were pretreated with 0.3 M sucrose for 30 min at 37° C. in PBS, and were then incubated with lipid solutions. Analysis was carried out as described previously.
Fluorescence Assay: After the incubation period, HeLa cells in PBS were analyzed using an Infinite™ 200 series microtiterplate reader (Tecan Systems, Inc.). All experiments were carried out in 96 well plates with six replicates. The plates were pretreated with 1% BSA for 12 h at 4° C. to minimize non-specific binding.

AF: avidin conjugated to fluorescein isothiocyanate [reference compound]
delivery of AF into the cell (microscopy or fluorescence counting): minimally fluorescent

Source: patent publication US20100286250A1, “FLUORINATED LIPIDS AND METHODS OF USE” (TUFTS UNIVERSITY, priority 2007, published 2010)
